We go through 23 compounds from US10450316B2, “Certain protein kinase inhibitor” (Chongqing Fochon Pharmaceutical Co., Ltd., priority 2015, dated 2019).

Molecules are shown by their SMILES.

The test system of the assay is BE(2)-C cell. The assay is described as follows: Cell proliferation assay (MTS) in BE(2)-C cells. The class given is cell-based. Particulars: Homo sapiens, inhibition of BE(2)-C cell proliferation, 48 h. The method in brief: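 BE(2)-C cells (3000/well, DMEM + 10% FBS) were treated for 48 h at 37 °C with compound at 1.5–10000 nM in nine concentrations. Viability was measured by MTS (2 h, stopped with SDS) at 490/650 nm, and IC50 was calculated from the dose-response.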
What is called IC50 is the concentration that inhibits the measured activity by half. For the compound `CN1CCC2(CC1)CN(Cc1ccc(Nc3ncc(F)c(-c4cc(F)c5nc6n(c5c4)[C@H](C(F)(F)F)CC6)n3)nc1)C2` [Example 62, (S)-5-fluoro-4-(5-fluoro-1-(trifluoromethyl)-2,3-dihydro-1H-benzo[d]pyrrolo[1,2-a]imidazol-7-yl)-N-(5-((7-methyl-2,7-diazaspiro[3.5]nonan-2-yl)methyl)pyridin-2-yl)pyrimidin-2-amine], the 50% inhibitory concentration (IC50) lay within 10 to 100 nM.
Next, `CCN1CCC2(CC1)CN(Cc1ccc(Nc3ncc(F)c(-c4cc(F)c5nc6n(c5c4)[C@H](C(F)(F)F)CC6)n3)nc1)C2` [Example 63, (S)-N-(5-((7-ethyl-2,7-diazaspiro[3.5]nonan-2-yl)methyl)pyridin-2-yl)-5-fluoro-4-(5-fluoro-1-(trifluoromethyl)-2,3-dihydro-1H-benzo[d]pyrrolo[1,2-a]imidazol-7-yl)pyrimidin-2-amine]: 10 to 100 nM; `Fc1cnc(Nc2ccc(CN3CCC4(CC3)CNC4)cn2)nc1-c1cc(F)c2nc3n(c2c1)[C@H](C(F)(F)F)CC3` [Example 64, (S)-N-(5-((2,7-diazaspiro[3.5]nonan-7-yl)methyl)pyridin-2-yl)-5-fluoro-4-(5-fluoro-1-(trifluoro-methyl)-2,3-dihydro-1H-benzo[d]pyrrolo[1,2-a]imidazol-7-yl)pyrimidin-2-amine]: more than 100 nM; `CN1CC2(CCN(Cc3ccc(Nc4ncc(F)c(-c5cc(F)c6nc7n(c6c5)[C@H](C(F)(F)F)CC7)n4)nc3)CC2)C1` [Example 65, (S)-5-fluoro-4-(5-fluoro-1-(trifluoromethyl)-2,3-dihydro-1H-benzo[d]pyrrolo[1,2-a]imidazol-7-yl)-N-(5-((2-methyl-2,7-diazaspiro[3.5]nonan-7-yl)methyl)pyridin-2-yl)pyrimidin-2-amine]: 10 to 100 nM.
Next, `CCN1CC2(CCN(Cc3ccc(Nc4ncc(F)c(-c5cc(F)c6nc7n(c6c5)[C@H](C(F)(F)F)CC7)n4)nc3)CC2)C1` [Example 66]: 10 to 100 nM; `Fc1cnc(Nc2ccc(CN3CC4(CNC4)C3)cn2)nc1-c1cc(F)c2nc3n(c2c1)[C@H](C(F)(F)F)CC3` [Example 67, (S)-N-(5-((2,6-diazaspiro[3.3]heptan-2-yl)methyl)pyridin-2-yl)-5-fluoro-4-(5-fluoro-1-(trifluoromethyl)-2,3-dihydro-1H-benzo[d]pyrrolo[1,2-a]imidazol-7-yl)pyrimidin-2-amine]: more than 100 nM.
In the case of `CN1CC2(C1)CN(Cc1ccc(Nc3ncc(F)c(-c4cc(F)c5nc6n(c5c4)[C@H](C(F)(F)F)CC6)n3)nc1)C2` [Example 68, (S)-5-fluoro-4-(5-fluoro-1-(trifluoromethyl)-2,3-dihydro-1H-benzo[d]pyrrolo[1,2-a]imidazol-7-yl)-N-(5-((6-methyl-2,6-diazaspiro[3.3]heptan-2-yl)methyl)pyridin-2-yl)pyrimidin-2-amine], the half-maximal inhibitory concentration (IC50) lay in the range of 10 to 100 nM.
`CCN1CC2(C1)CN(Cc1ccc(Nc3ncc(F)c(-c4cc(F)c5nc6n(c5c4)[C@H](C(F)(F)F)CC6)n3)nc1)C2` [Example 69, (S)-N-(5-((6-ethyl-2,6-diazaspiro[3.3]heptan-2-yl)methyl)pyridin-2-yl)-5-fluoro-4-(5-fluoro-1-(trifluoromethyl)-2,3-dihydro-1H-benzo[d]pyrrolo[1,2-a]imidazol-7-yl)pyrimidin-2-amine] had an IC50 of 10 to 100 nM.
Next, `Fc1cnc(Nc2ccc(CN3CCC4(CCNCC4)CC3)cn2)nc1-c1cc(F)c2nc3n(c2c1)[C@H](C(F)(F)F)CC3` [Example 70, (S)-N-(5-((3,9-diazaspiro[5.5]undecan-3-yl)methyl)pyridin-2-yl)-5-fluoro-4-(5-fluoro-1-(trifluoromethyl)-2,3-dihydro-1H-benzo[d]pyrrolo[1,2-a]imidazol-7-yl)pyrimidin-2-amine]: more than 1000 nM; `CN1CCC2(CC1)CCN(Cc1ccc(Nc3ncc(F)c(-c4cc(F)c5nc6n(c5c4)[C@H](C(F)(F)F)CC6)n3)nc1)CC2` [Example 71, (S)-5-fluoro-4-(5-fluoro-1-(trifluoromethyl)-2,3-dihydro-1H-benzo[d]pyrrolo[1,2-a]imidazol-7-yl)-N-(5-((9-methyl-3,9-diazaspiro[5.5]undecan-3-yl)methyl)pyridin-2-yl)pyrimidin-2-amine]: 10 to 100 nM.
`CCN1CCC2(CC1)CCN(Cc1ccc(Nc3ncc(F)c(-c4cc(F)c5nc6n(c5c4)[C@H](C(F)(F)F)CC6)n3)nc1)CC2` [Example 72, (S)-N-(5-((9-ethyl-3,9-diazaspiro[5.5]undecan-3-yl)methyl)pyridin-2-yl)-5-fluoro-4-(5-fluoro-1-(trifluoromethyl)-2,3-dihydro-1H-benzo[d]pyrrolo [1,2-a]imidazol-7-yl)pyrimidin-2-amine] registered an IC50 of 10 to 100 nM.
As to `Fc1cnc(Nc2ccc(CN3CC4CNCC4C3)cn2)nc1-c1cc(F)c2nc3n(c2c1)[C@H](C(F)(F)F)CC3` (some centres unmarked) [Example 73, 5-fluoro-4-((5)-5-fluoro-1-(trifluoromethyl)-2,3-dihydro-1H-benzo[d]pyrrolo[1,2-a]imidazol-7-yl)-N-(5-((hexahydropyrrolo[3,4-c]pyrrol-2(1H)-yl)methyl)pyridin-2-yl)pyrimidin-2-amine], the IC50 was more than 100 nM.
The value for `CN1CC2CN(Cc3ccc(Nc4ncc(F)c(-c5cc(F)c6nc7n(c6c5)[C@H](C(F)(F)F)CC7)n4)nc3)CC2C1` (stereo partly drawn) [Example 74, 5-fluoro-4-((S)-5-fluoro-1-(trifluoromethyl)-2,3-dihydro-1H-benzo[d]pyrrolo[1,2-a]imidazol-7-yl)-N-(5-((5-methylhexahydropyrrolo[3,4-c]pyrrol-2(1H)-yl)methyl)pyridin-2-yl)pyrimidin-2-amine] was 10 to 100 nM.
The value for `CCN1CC2CN(Cc3ccc(Nc4ncc(F)c(-c5cc(F)c6nc7n(c6c5)[C@H](C(F)(F)F)CC7)n4)nc3)CC2C1` (stereo partly drawn) [Example 75, N-(5-((5-ethylhexahydropyrrolo[3,4-c]pyrrol-2(1H)-yl)methyl)pyridin-2-yl)-5-fluoro-4-((S)-5-fluoro-1-(trifluoromethyl)-2,3-dihydro-1H-benzo[d]pyrrolo[1,2-a]imidazol-7-yl)pyrimidin-2-amine] was 10 to 100 nM.
The value for `Fc1cnc(Nc2ccc(CN3C4CCC3CNC4)cn2)nc1-c1cc(F)c2nc3n(c2c1)[C@H](C(F)(F)F)CC3` [Example 76, N-(5-((3,8-diazabicyclo[3.2.1]octan-8-yl)methyl)pyridin-2-yl)-5-fluoro-4-((S)-5-fluoro-1-(trifluoro-methyl)-2,3-dihydro-1H-benzo[d]pyrrolo[1,2-a]imidazol-7-yl)pyrimidin-2-amine] was 10 to 100 nM; that for `CN1CC2CCC(C1)N2Cc1ccc(Nc2ncc(F)c(-c3cc(F)c4nc5n(c4c3)[C@H](C(F)(F)F)CC5)n2)nc1` [Example 77, 5-fluoro-4-((S)-5-fluoro-1-(trifluoromethyl)-2,3-dihydro-1H-benzo[d]pyrrolo[1,2-a]imidazol-7-yl)-N-(5-((3-methyl-3,8-diazabicyclo[3.2.1]octan-8-yl)methyl)pyridin-2-yl)pyrimidin-2-amine] was 10 to 100 nM.
Compound `CCN1CC2CCC(C1)N2Cc1ccc(Nc2ncc(F)c(-c3cc(F)c4nc5n(c4c3)[C@H](C(F)(F)F)CC5)n2)nc1` [Example 78, N-(5-((3-ethyl-3,8-diazabicyclo[3.2.1]octan-8-yl)methyl)pyridin-2-yl)-5-fluoro-4-((S)-5-fluoro-1-(trifluoromethyl)-2,3-dihydro-1H-benzo[d]pyrrolo [1,2-a]imidazol-7-yl)pyrimidin-2-amine] showed an IC50 of 10 to 100 nM.
`Fc1cnc(Nc2ccc(CN3CC4CCC(C3)N4)cn2)nc1-c1cc(F)c2nc3n(c2c1)[C@H](C(F)(F)F)CC3` [Example 79, N-(5-((3,8-diazabicyclo[3.2.1]octan-3-yl)methyl)pyridin-2-yl)-5-fluoro-4-((S)-5-fluoro-1-(trifluoro-methyl)-2,3-dihydro-1H-benzo[d]pyrrolo[1,2-a]imidazol-7-yl)pyrimidin-2-amine] yielded an IC50 of 10 to 100 nM.
Next, `CN1C2CCC1CN(Cc1ccc(Nc3ncc(F)c(-c4cc(F)c5nc6n(c5c4)[C@H](C(F)(F)F)CC6)n3)nc1)C2` [Example 80, 5-fluoro-4-((S)-5-fluoro-1-(trifluoromethyl)-2,3-dihydro-1H-benzo[d]pyrrolo[1,2-a]imidazol-7-yl)-N-(5-((8-methyl-3,8-diazabicyclo[3.2.1]octan-3-yl)methyl)pyridin-2-yl)pyrimidin-2-amine]: 10 to 100 nM; `CCN1C2CCC1CN(Cc1ccc(Nc3ncc(F)c(-c4cc(F)c5nc6n(c5c4)[C@H](C(F)(F)F)CC6)n3)nc1)C2` [Example 81, N-(5-((8-ethyl-3,8-diazabicyclo[3.2.1]octan-3-yl)methyl)pyridin-2-yl)-5-fluoro-4-((S)-5-fluoro-1-(trifluoromethyl)-2,3-dihydro-1H-benzo[d]pyrrolo [1,2-a]imidazol-7-yl)pyrimidin-2-amine]: 10 to 100 nM.
Take `C[C@@H]1CCc2nc3c(F)cc(-c4nc(Nc5ccc(CN6CCNCC6)cn5)ncc4F)cc3n21` [Example 82, (R)-5-fluoro-4-(5-fluoro-1-methyl-2,3-dihydro-1H-benzo[d]pyrrolo[1,2-a]imidazol-7-yl)-N-(5-(piperazin-1-ylmethyl)pyridin-2-yl)pyrimidin-2-amine]: the IC50 was 10 to 100 nM.
The value for `C[C@@H]1CCc2nc3c(F)cc(-c4nc(Nc5ccc(CN6CCN7CCC[C@@H]7C6)cn5)ncc4F)cc3n21` [Example 85, 5-fluoro-4-((R)-5-fluoro-1-methyl-2,3-dihydro-1H-benzo[d]pyrrolo[1,2-a]imidazol-7-yl)-N-(5-(((R)-hexahydropyrrolo[1,2-a]pyrazin-2(1H)-yl)methyl)pyridin-2-yl)pyrimidin-2-amine] was 10 to 100 nM.
`C[C@@H]1CCc2nc3c(F)cc(-c4nc(Nc5ccc(CN6CCC7(CC6)CNC7)cn5)ncc4F)cc3n21` [Example 86, (R)-N-(5-((2,7-diazaspiro[3.5]nonan-7-yl)methyl)pyridin-2-yl)-5-fluoro-4-(5-fluoro-1-methyl-2,3-dihydro-1H-benzo[d]pyrrolo[1,2-a]imidazol-7-yl)pyrimidin-2-amine] gave an IC50 of more than 100 nM.
